Data from patent publication US7837757B2, “Enhanced abscisic acid and fertilizer performance” (Valent BioSciences Corporation, priority 2007, dated 2010).
Values joined by “and” are separate entries in the source; they are usually repeats but may differ in a detail not shown here. Equal values may be shown once. Where a name gives a salt, the structure may show the parent alone.

Test system: tomato leaf transpiration
Assay: tomato leaf transpiration inhibition (porometer, normalized to water-sprayed plants)
Format: in vivo, Tomato (variety: Rutgers)

Question: How did the “Transpiration rate (% of control)” value (in vivo) turn out when `CC1=CC(=O)CC(C)(C)[C@@]1(O)/C=C/C(C)=C\C(=O)O` [ABA ammonium salt, Ammonium Salt of (S)-(+)-Abscisic Acid] was run?
Answer: Its value is 57 % of control and 67 % of control and 78 % of control and 76 % of control and 88 % of control.

Question: And the “Transpiration rate (% of control), Average” value (in vivo)?
Answer: Its value is 68 % of control and 81 % of control.

Question: `[Ca+2].[Cl-].[Cl-]` [CaCl2, calcium chloride] was tested. Which “Transpiration rate (% of control)” value (in vivo) did it give?
Answer: The value was 97 % of control and 101 % of control and 98 % of control.

Question: What about the “effect on tomato leaf transpiration (in words)” value (in vivo) of the same compound?
Answer: The value was “did not affect tomato leaf transpiration”.

Question: `NC(N)=O` [Urea, urea] was tested. Which “Transpiration rate (% of control)” value (1 mM urea alone, foliar, 1 day after treatment) did it give?
Answer: Its value is 103 % of control.

Question: And the “Transpiration rate (% of control)” value (1 mM urea alone, foliar, 2 days after treatment)?
Answer: Its value is 98 % of control.

Question: And the “Transpiration rate (% of control)” value (1 mM urea alone, foliar, 3 days after treatment)?
Answer: The value was 98 % of control.

Question: And the “Transpiration rate (% of control)” value (1 mM urea alone, foliar, 4 days after treatment)?
Answer: Its value is 100 % of control.

Question: And the “Transpiration rate (% of control)” value (10 mM urea alone, foliar, 1 day after treatment)?
Answer: The value was 101 % of control.

Question: What about the “Transpiration rate (% of control)” value (10 mM urea alone, foliar, 2 days after treatment) of the same compound?
Answer: The value was 103 % of control.

Question: And the “Transpiration rate (% of control)” value (10 mM urea alone, foliar, 3 days after treatment)?
Answer: The value was 106 % of control.

Question: And the “Transpiration rate (% of control)” value (10 mM urea alone, foliar, 4 days after treatment)?
Answer: The value was 101 % of control.

Question: What about the “Transpiration rate (% of control)” value (100 mM urea alone, foliar, 1 day after treatment) of the same compound?
Answer: The value was 102 % of control.

Question: What about the “Transpiration rate (% of control)” value (100 mM urea alone, foliar, 2 days after treatment) of the same compound?
Answer: Its value is 102 % of control.

Question: What about the “Transpiration rate (% of control)” value (100 mM urea alone, foliar, 3 days after treatment) of the same compound?
Answer: Its value is 107 % of control.

Question: What about the “Transpiration rate (% of control)” value (100 mM urea alone, foliar, 4 days after treatment) of the same compound?
Answer: The value was 102 % of control.

Question: What about the “effect on tomato leaf transpiration (in words)” value (fertilizer or salt alone at 1, 10 or 100 mM, foliar) of the same compound?
Answer: Its value is “did not reduce tomato leaf transpiration”.

Question: Which “Transpiration rate (% of control), Average” value (in vivo) does the source give for “(S)-5-(1-hydroxy-2,6,6,-trimethyl-4-oxo-2-cyclohexen-1-yl)-3-methyl-(2Z,4E)-pentadienoic acid [ABA, reference compound]” here?
Answer: Its value is 69 % of control and 78 % of control.
